Test results published in PubChem BioAssay AID330 (DTP/NCI, 2004).
Values joined by “and” are separate entries in the source; they are usually repeats but may differ in a detail not shown here. Equal values may be shown once. Inconclusive results and toxic doses are left out. Rule for the calls: active = survival T/C of 150% or more; inactive = T/C below 125% in these data.

Tested on: P388 leukemia ip, CD2F1 mice, survival T/C
Experiment: NCI In Vivo Anticancer Drug Screen. Data for tumor model P388 Leukemia (intraperitoneal) in CD2F1 (CDF1) mice
Conditions: endpoint: median survival time, higher = longer survival
How it was run: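 Mice carrying the transplanted tumor received test compound or vehicle. Survival was recorded in each group, and the value is the treated-group measurement divided by that of the vehicle-treated control group.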

[1] = dose: 25.0 mg/kg/injection, schedule: Q01DX009 (ip), vehicle: Klucel (hydroxypropylcellulose) (HPC)
[2] = dose: 50.0 mg/kg/injection, schedule: Q01DX009 (ip), vehicle: Klucel (hydroxypropylcellulose) (HPC)
[3] = dose: 100.0 mg/kg/injection, schedule: Q01DX009 (ip), vehicle: Klucel (hydroxypropylcellulose) (HPC)
[4] = dose: 200.0 mg/kg/injection, schedule: Q01DX009 (ip), vehicle: Klucel (hydroxypropylcellulose) (HPC)
[5] = dose: 60.0 mg/kg/injection, schedule: Q01DX005 (ip), vehicle: saline with Tween-80
[6] = dose: 120.0 mg/kg/injection, schedule: Q01DX005 (ip), vehicle: saline with Tween-80
[7] = dose: 240.0 mg/kg/injection, schedule: Q01DX005 (ip), vehicle: saline with Tween-80
[8] = dose: 12.5 mg/kg/injection, schedule: Q01DX009 (ip), vehicle: Klucel (hydroxypropylcellulose) (HPC)
[9] = dose: 50.0 mg/kg/injection, schedule: Q01DX005 (ip), vehicle: Klucel (hydroxypropylcellulose) (HPC)
[10] = dose: 100.0 mg/kg/injection, schedule: Q01DX005 (ip), vehicle: Klucel (hydroxypropylcellulose) (HPC)
[11] = dose: 200.0 mg/kg/injection, schedule: Q01DX005 (ip), vehicle: Klucel (hydroxypropylcellulose) (HPC)
[12] = dose: 6.25 mg/kg/injection, schedule: Q01DX009 (ip), vehicle: saline with Tween-80
[13] = dose: 12.5 mg/kg/injection, schedule: Q01DX009 (ip), vehicle: saline with Tween-80

Measured: T/C

S=C(Nc1ccccc1)SCc1ccc(Cl)cc1
inactive: dose: 50.0 mg/kg/injection, schedule: Q01DX009 (ip), vehicle: saline 104 % of control | dose: 100.0 mg/kg/injection, schedule: Q01DX009 (ip), vehicle: saline 103 % of control | dose: 200.0 mg/kg/injection, schedule: Q01DX009 (ip), vehicle: saline 108 % of control

CCC12C=CCN3CC[C@@]4(c5cc([C@@]6(C(=O)OC)CC7CN(CCc8c6[nH]c6ccccc86)C[C@](O)(CC)C7)c(OC)cc5N(C)[C@H]4[C@]4(OCOC4=O)[C@@H]1O)C32 (some centres not stated)
inactive: dose: 0.5 mg/kg/injection, schedule: Q01DX005 (ip), vehicle: saline 102 % of control | dose: 1.0 mg/kg/injection, schedule: Q01DX005 (ip), vehicle: saline 91 % of control | dose: 2.0 mg/kg/injection, schedule: Q01DX005 (ip), vehicle: saline 92 % of control

CC(C)CC(NCc1ccccc1)C(=O)O (configuration not stated)
inactive: dose: 50.0 mg/kg/injection, schedule: Q01DX005 (ip), vehicle: saline with Tween-80 95 % of control | dose: 100.0 mg/kg/injection, schedule: Q01DX005 (ip), vehicle: saline with Tween-80 100 % of control | dose: 200.0 mg/kg/injection, schedule: Q01DX005 (ip), vehicle: saline with Tween-80 95 % of control

COCNC(=S)c1cc(C(=S)NCOC)c(C(=O)NC(C)(C)C)nc1C(=O)NC(C)(C)C
inactive: dose: 100.0 mg/kg/injection, schedule: Q04DX002 (ip), vehicle: saline with Tween-80 92 % of control | dose: 200.0 mg/kg/injection, schedule: Q04DX002 (ip), vehicle: saline with Tween-80 98 % of control | dose: 400.0 mg/kg/injection, schedule: Q04DX002 (ip), vehicle: saline with Tween-80 93 % of control

C[N+]1(C)CC[N+](C)(C)CC1
inactive: [1] 103 % of control | [2] 103 % of control | [3] 100 % of control | [4] 110 % of control

C1=CCC2CSCC2C1 (configuration not stated)
inactive: dose: 37.5 mg/kg/injection, schedule: Q01DX001 (ip), vehicle: saline sonified 100 % of control | dose: 75.0 mg/kg/injection, schedule: Q01DX001 (ip), vehicle: saline sonified 105 % of control

NS(=O)(=O)c1ccc(NC(=S)S)cc1
inactive: [2] 107 % of control | [3] 107 % of control | [4] 91 % of control

Cc1ncc(C(=O)O)n1C(C)c1ccccc1 (configuration not stated)
inactive: [5] 108 % of control | [6] 103 % of control | [7] 110 % of control

COC(=O)CC1OCC=C2CN3CCC45C6=CC(=O)C(=O)C([N+](=O)[O-])=C6NC4C1C2CC35 (configuration not stated)
inactive: dose: 7.5 mg/kg/injection, schedule: Q01DX005 (ip), vehicle: suspension in saline 101 % of control | dose: 15.0 mg/kg/injection, schedule: Q01DX005 (ip), vehicle: suspension in saline 100 % of control

C[n+]1ccccc1/C=C/c1ccc2c(c1)OCO2
inactive: dose: 6.25 mg/kg/injection, schedule: Q01DX009 (ip), vehicle: Klucel (hydroxypropylcellulose) (HPC) 102 % of control | [8] 98 % of control | [1] 110 % of control | [2] 114 % of control

NNS(=O)(=O)c1cccc([N+](=O)[O-])c1
inactive: dose: 12.5 mg/kg/injection, schedule: Q01DX009 (ip), vehicle: other 107 % of control | dose: 25.0 mg/kg/injection, schedule: Q01DX009 (ip), vehicle: other 98 % of control | dose: 50.0 mg/kg/injection, schedule: Q01DX009 (ip), vehicle: other 103 % of control

CC1=NN(C(=O)c2ccccc2)C(C)(C)C1
inactive: [9] 113 % of control | [10] 111 % of control | [11] 97 % of control

O=C1c2c(Cl)c(Cl)c(Cl)c(Cl)c2C(=O)N1O
inactive: [12] 100 % of control | [13] 100 % of control | dose: 25.0 mg/kg/injection, schedule: Q01DX009 (ip), vehicle: saline with Tween-80 104 % of control

CC1(C)OC2OC(COC(=O)c3ccccc3)C(N3OC4C=CC3CC4)C2O1 (configuration not stated)
inactive: dose: 100.0 mg/kg/injection, schedule: Q04DX002 (ip), vehicle: Klucel (hydroxypropylcellulose) (HPC) 103 % of control | dose: 200.0 mg/kg/injection, schedule: Q04DX002 (ip), vehicle: Klucel (hydroxypropylcellulose) (HPC) 103 % of control | dose: 400.0 mg/kg/injection, schedule: Q04DX002 (ip), vehicle: Klucel (hydroxypropylcellulose) (HPC) 102 % of control

O=C(OCC(Cl)(Cl)Cl)N1[C@H]2C3=C(CCC3)[C@@H]([C@H]3O[C@H]32)N1C(=O)OCC(Cl)(Cl)Cl
inactive: [9] 97 % of control | [10] 97 % of control | [11] 97 % of control

O=C1CCC2(ON=C(c3ccccc3)C2Br)O1 (configuration not stated)
inactive: dose: 50.0 mg/kg/injection, schedule: Q01DX009 (ip), vehicle: saline with Tween-80 116 % of control | dose: 100.0 mg/kg/injection, schedule: Q01DX009 (ip), vehicle: saline with Tween-80 108 % of control | dose: 200.0 mg/kg/injection, schedule: Q01DX009 (ip), vehicle: saline with Tween-80 116 % of control

N#C/C(=C/c1ccc(Cl)cc1)C(=O)NC(N)=O
inactive: dose: 100.0 mg/kg/injection, schedule: Q04DX002 (ip), vehicle: saline 100 % of control | dose: 200.0 mg/kg/injection, schedule: Q04DX002 (ip), vehicle: saline 105 % of control | dose: 400.0 mg/kg/injection, schedule: Q04DX002 (ip), vehicle: saline 107 % of control

C#CCN(C)/N=N/c1nc[nH]c1C(N)=O
inactive: [8] 115 % of control | [1] 122 % of control | [2] 120 % of control | [3] 112 % of control

N#CCCCCCCCCCCCC1C=CCC1 (configuration not stated)
inactive: dose: 100.0 mg/kg/injection, schedule: Q01DX001 (ip), vehicle: saline 100 % of control | dose: 200.0 mg/kg/injection, schedule: Q01DX001 (ip), vehicle: saline 98 % of control | dose: 400.0 mg/kg/injection, schedule: Q01DX001 (ip), vehicle: saline 100 % of control

CC1(C)c2cccc(O)c2C(=O)C2C(O)=C3C(O)=C(C(N)=O)C(=O)CC3C(O)C21 (configuration not stated)
inactive: [5] 109 % of control | [6] 111 % of control | [7] 121 % of control

C=C1CC2(CCCC(=O)C2)OC1=O (configuration not stated)
inactive: dose: 12.5 mg/kg/injection, schedule: Q01DX005 (ip), vehicle: Klucel (hydroxypropylcellulose) (HPC) 97 % of control | dose: 25.0 mg/kg/injection, schedule: Q01DX005 (ip), vehicle: Klucel (hydroxypropylcellulose) (HPC) 101 % of control | [9] 99 % of control and 101 % of control

CC1(C)CC2=NO[Se]3=C2C(=NO3)C1
inactive: dose: 1.56 mg/kg/injection, schedule: Q01DX009 (ip), vehicle: saline with Tween-80 104 % of control | dose: 3.12 mg/kg/injection, schedule: Q01DX009 (ip), vehicle: saline with Tween-80 102 % of control | [12] 104 % of control and 111 % of control | [13] 117 % of control

Cc1nc2ccccc2[se]1
inactive: [5] 100 % of control | [6] 92 % of control | [7] 96 % of control

COc1ccc(/C=C2/C(=O)N(c3ccccc3)N=C2C)cc1
inactive: dose: 60.0 mg/kg/injection, schedule: Q01DX005 (ip), vehicle: Klucel (hydroxypropylcellulose) (HPC) 107 % of control | dose: 120.0 mg/kg/injection, schedule: Q01DX005 (ip), vehicle: Klucel (hydroxypropylcellulose) (HPC) 104 % of control | dose: 240.0 mg/kg/injection, schedule: Q01DX005 (ip), vehicle: Klucel (hydroxypropylcellulose) (HPC) 107 % of control

CN1CCN(CC(=O)N/N=C/c2ccc([N+](=O)[O-])o2)CC1
inactive: [2] 101 % of control and 94 % of control | [3] 99 % of control and 101 % of control | [4] 107 % of control
